{"source": "patent US7063857B1", "about": "“Use of macrolide compounds for the treatment of dry eye” (Sucampo AG, priority 1999, dated 2006)", "key": {"healthy subjects": {"test_system": "healthy subjects", "test": "Tear film breakup time (BUT) after instillation in healthy subjects", "assay_type": "in vivo, human", "details": "instilled four times a day for 7 days, healthy subjects (6 per group), right eye, difference between before and 8 days after instillation", "method": "A suspension having the same formulation as in Example 1 was produced using FK506 as the active ingredient to give a 0.01% FK506 eye drop (suspension) and 0.1% FK506 eye drop (suspension) as test drugs. The base for the eye drops was used as the control drug. The above-mentioned test drugs and the control drug were instilled four times a day for 7 days to 18 healthy subjects (6 per group) at 8:00, 11:00, 14:00 and 17:00. The tear film breakup time (sec) of the right eye was measured before instillation and 8 days after instillation. The difference between before and after the instillation was calculated, and taken as the mean variation of the tear film breakup time. The tear film breakup time was measured according to the conventional method. After instillation of fluorescein, the tear film was formed on the surface of the eye by nictitation."}, "[1]": {"test_system": "person having subjective symptoms of dry eye", "test": "Instillation of FK506 eye drop in a person with subjective symptoms of dry eye", "assay_type": "in vivo, human", "details": "0.06% eye drop (suspension), twice a day for two weeks, one patient", "description": "Using FK506 as the active ingredient in the present invention, a 0.06% eye drop (suspension) having the following formulation was used as a test drug. A suspension having the following formulation was produced in the same manner as in EP-A-0406791 (Example 6). [table]"}}}
{"smiles": "C=CC[C@@H]1/C=C(\\C)C[C@H](C)C[C@H](OC)[C@H]2O[C@@](O)(C(=O)C(=O)N3CCCC[C@H]3C(=O)O[C@H](/C(C)=C/[C@@H]3CC[C@@H](O)[C@H](OC)C3)[C@H](C)[C@@H](O)CC1=O)[C@H](C)C[C@@H]2OC", "note": "[FK506, 17-allyl-1,14-dihydroxy-12-[2-(4-hydroxy-3-methoxycyclohexyl)-1-methylvinyl]-23,25-dimethoxy-13,19,21,27-tetramethyl-11,28-dioxa-4-azatricyclo-[22.3 .1.0^4,9]octacos-18-ene-2,3,10,16-tetraone]", "values": [{"measurement": "Mean variation of tear film breakup time", "setting": "healthy subjects; 0.01% FK506 eye drop (suspension)", "value": "+0.58 sec"}, {"measurement": "Mean variation of tear film breakup time", "setting": "healthy subjects; 0.1% FK506 eye drop (suspension)", "value": "+0.75 sec"}, {"measurement": "subjective symptoms of dry eye (sense of dryness, foreign body and grittiness)", "setting": "[1]", "value": "the subjective symptoms disappeared"}]}
